In the supplement of paper PMC10307832:

Tests used:
Assay in all cases: relative viability (nuclei count vs DMSO), 5 days (fraction); higher = more cells survive
[1] = compound: O=c1[nH]cc(F)c(=O)[nH]1 [5-Fluorouracil] + CS(=O)(=O)N1CCN(Cc2cc3nc(-c4cccc5[nH]ncc45)nc(N4CCOCC4)c3s2)CC1 [Pictilisib] (partner 1 µM)
Method in brief: (§1)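 Lung cancer cell lines were seeded in 1536-well plates and dosed by pin tool the next day, with either a single drug or a fixed anchor-drug dose combined with five library-drug doses (not always all listed) spaced in √10 steps. Five days later, one step fixed the cells and stained their nuclei (final 0.05% Triton X-100, 1% formaldehyde, 1 ug/ml Hoechst), and nuclei were counted on 4× images. Relative viability is the nuclei count in treated wells divided by the count in vehicle wells, and each value is the median of duplicate plates.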

Staurosporine + OSI-027 = compound: CN[C@@H]1C[C@H]2O[C@@](C)([C@@H]1OC)n1c3ccccc3c3c4c(c5c6ccccc6n2c5c31)C(=O)NC4 [Staurosporine] + COc1cccc2cc(-c3nc([C@H]4CC[C@H](C(=O)O)CC4)n4ncnc(N)c34)[nH]c12 [OSI-027] (partner 0.5 µM)
Method in brief: as §1

[2] = compound: O=c1[nH]cc(F)c(=O)[nH]1 [5-Fluorouracil] + O=C(c1cc(Cc2n[nH]c(=O)c3ccccc23)ccc1F)N1CCN(C(=O)C2CC2)CC1 [Olaparib] (partner 8 µM)
Method in brief: as §1

Staurosporine + Olaparib = compound: CN[C@@H]1C[C@H]2O[C@@](C)([C@@H]1OC)n1c3ccccc3c3c4c(c5c6ccccc6n2c5c31)C(=O)NC4 [Staurosporine] + O=C(c1cc(Cc2n[nH]c(=O)c3ccccc23)ccc1F)N1CCN(C(=O)C2CC2)CC1 [Olaparib] (partner 8 µM)
Method in brief: as §1

Cell Line	relative viability ([1]; first compound 0.02 µM)	relative viability ([1]; first compound 0.2 µM)	relative viability ([1]; first compound 0.6325 µM)	relative viability ([1]; first compound 2 µM)	relative viability (Staurosporine + OSI-027; first compound 0.005 µM)	relative viability (Staurosporine + OSI-027; first compound 0.01581 µM)	relative viability (Staurosporine + OSI-027; first compound 0.05 µM)	relative viability (Staurosporine + OSI-027; first compound 0.1581 µM)	relative viability (Staurosporine + OSI-027; first compound 0.5 µM)	relative viability ([2]; first compound 0.02 µM)	relative viability ([2]; first compound 0.2 µM)	relative viability ([2]; first compound 0.6325 µM)	relative viability ([2]; first compound 2 µM)	relative viability (Staurosporine + Olaparib; first compound 0.005 µM)	relative viability (Staurosporine + Olaparib; first compound 0.01581 µM)	relative viability (Staurosporine + Olaparib; first compound 0.05 µM)	relative viability (Staurosporine + Olaparib; first compound 0.1581 µM)	relative viability (Staurosporine + Olaparib; first compound 0.5 µM)
LC-2-ad	0.57	0.442	0.324	0.231	0.807	0.25	0.342	0.216	0.199	0.712	0.682	0.513	0.348	0.684	0.546	0.483	0.154	0.0646
SK-LU-1	0.491	0.558	0.549	0.402	0.214	0.0957		0.113	0.0858	0.511	0.551	0.557	0.407	0.337	0.172	0.156	0.128	0.13
HCC-15	0.903	0.762	0.539	0.315	0.565		0.296	0.113	0.0919	0.741	0.707	0.521	0.33	0.613		0.532	0.286	0.205
COR-L 105	0.473	0.458	0.4	0.391	0.279	0.173	0.269	0.266	0.183	0.713	0.792	0.58	0.512	0.562	0.401	0.326	0.386	0.26
NCI-H647	0.473	0.483	0.429	0.401	0.29	0.123	0.149	0.0899	0.0651	0.577	0.501	0.434	0.407	0.275	0.199	0.0866	0.0394	0.0357
LU99A	0.289	0.314	0.317	0.261	0.224	0.164	0.229	0.155	0.144	0.307	0.259	0.267	0.226	0.228	0.164	0.141	0.138	0.121
NCI-H2170	0.354	0.338	0.314	0.285	0.815		0.576	0.175	0.0943	0.597	0.545	0.339	0.289	0.617		0.455	0.223	0.165
LCLC-97TM1	0.184	0.235	0.133	0.139	0.343	0.234	0.245	0.203	0.198	0.334	0.363	0.257	0.232	0.42	0.12	0.194	0.236	0.191
NCI-H322M	0.564	0.536	0.529	0.427	0.619	0.309	0.292	0.294	0.235	0.838	0.764	0.618	0.531	0.831	0.691	0.556	0.411	0.345
